# Source: patent US20100160264A1, “CRYSTALLINE SOLID FORMS” (priority 2007, published 2010)
# Tests used:
# [1] = Stability after storing different crystalline forms of Tigecycline at 80° C. for 7 days (4-Epi-Tigecycline and total impurities); assay type: physicochemical; details: for 4-Epi-Tigecycline 7 days at 80° C. / Total impurities 7 days at 80° C.: after storing 7 days at 80° C., in % (unit assumed); for 4-Epi-Tigecycline ambient conditions / Total impurities ambient conditions: before storage, depends on purity of the starting material; for Stability in words (total impurities and 4-Epi-Tigecycline content): 7 days at 80° C.
# Excerpt: A suitable crystalline form of Tigecycline for formulating an anti-infective medicament first of all is required to be thermodynamic stable, in order to avoid formation of degradation products.
# [2] = Water content and hygroscopicity: open storage for 24 hours at 80% relative humidity; assay type: physicochemical; details: for water content 1 day at 80% rH: open storage 1 day at 80% rH; for water uptake 1 day at 80% rH / Hygroscopicity in words: open storage 24 hours at 80% relative humidity
# Excerpt: Furthermore suitable crystalline forms of Tigecycline should be low hygroscopic, as water uptake may cause the formation of undesired byproducts like e.g. 4-Epi-Tigecycline.
# [3] = 30 min
# Procedure: The water solubility determination of the different crystalline forms of Tigecycline was performed on a Perkin Elmer® Lambda 35 UV/VIS spectrometer. The software used was Perkin Elmer® UV WlnLab-5.1.
# 200 mg of Tigecycline were stirred with 1 ml distilled water at room temperature for 30 minutes. The suspension was filtered through a 0.45 μm filter and 100 μl of the solution were transferred into a 1 L volumetric flask. After filling up to the check mark with distilled water the solution was measured at 347 nm.
# [4] = cited from earlier work
smiles,measurement,setting,value
"CN(C)c1cc(NC(=O)CNC(C)(C)C)c(O)c2c1C[C@H]1C[C@H]3[C@H](N(C)C)C(O)=C(C(N)=O)C(=O)[C@@]3(O)C(O)=C1C2=O [Form III, Tigecycline]",4-Epi-Tigecycline 7 days at 80° C.,[1]; listed as III,2.18
same,Total impurities 7 days at 80° C.,[1]; listed as III,4.46
same,4-Epi-Tigecycline ambient conditions,[1]; listed as III,0.16%
same,Total impurities ambient conditions,[1]; listed as III,0.16%
same,water content ambient conditions,[2]; listed as III,0.69%
same,water content 1 day at 80% rH,[2]; listed as III,8.01%
same,water uptake 1 day at 80% rH,[2],7.32%
same,water uptake 1 day at 80% rH,[2]; listed as III,7.32%
same,"Solubility, Concentration",[3],174 mg/mL
"CN(C)c1cc(NC(=O)CNC(C)(C)C)c(O)c2c1C[C@H]1C[C@H]3[C@H](N(C)C)C(O)=C(C(N)=O)C(=O)[C@@]3(O)C(O)=C1C2=O [Form V, Tigecycline]",4-Epi-Tigecycline 7 days at 80° C.,[1]; listed as V,0.18
same,Total impurities 7 days at 80° C.,[1]; listed as V,0.37
same,4-Epi-Tigecycline ambient conditions,[1]; listed as V,< 0.05%
same,Total impurities ambient conditions,[1]; listed as V,0.22%
same,water content ambient conditions,[2]; listed as V,0.19%
same,water content 1 day at 80% rH,[2]; listed as V,1.88%
same,water uptake 1 day at 80% rH,[2]; listed as V,1.69%
same,"Solubility, Concentration",[3],134 mg/mL
"CN(C)c1cc(NC(=O)CNC(C)(C)C)c(O)c2c1C[C@H]1C[C@H]3[C@H](N(C)C)C(O)=C(C(N)=O)C(=O)[C@@]3(O)C(O)=C1C2=O [Form I, Tigecycline]",Stability in words (total impurities and 4-Epi-Tigecycline content),[1],tremendous increase
same,4-Epi-Tigecycline 7 days at 80° C.,[1]; listed as I,2.15
same,Total impurities 7 days at 80° C.,[1]; listed as I,11.20
same,4-Epi-Tigecycline ambient conditions,[1]; listed as I,0.36%
same,Total impurities ambient conditions,[1]; listed as I,0.75%
same,water content ambient conditions,[2]; listed as I,2.01%
same,water content 1 day at 80% rH,[2]; listed as I,5.01%
same,water uptake 1 day at 80% rH,[2]; listed as I,3.00%
same,"Solubility, Concentration",[3],185 mg/mL
"CN(C)c1cc(NC(=O)CNC(C)(C)C)c(O)c2c1C[C@H]1C[C@H]3[C@H](N(C)C)C(O)=C(C(N)=O)C(=O)[C@@]3(O)C(O)=C1C2=O [Tigecycline, (4S,4aS,5aR,12aS)-4,7-Bis(dimethylamino)-9-[[2-[(1,1-dimethylethyl)amino]acetyl]amino]-1,4,4a,5,5a,6,11,12a-octahydro-3,10,12,12a-tetrahydroxy-1,11-dioxo-2-naphthacene carboxamide]",oral bioavailability,[4],very limited
"CN(C)c1cc(NC(=O)CNC(C)(C)C)c(O)c2c1C[C@H]1C[C@H]3[C@H](N(C)C)C(O)=C(C(N)=O)C(=O)[C@@]3(O)C(O)=C1C2=O [Form II, Tigecycline]",Stability in words (total impurities and 4-Epi-Tigecycline content),[1]; listed as form II,tremendous increase
same,4-Epi-Tigecycline 7 days at 80° C.,[1]; listed as II,10.83
same,Total impurities 7 days at 80° C.,[1]; listed as II,18.44
same,4-Epi-Tigecycline ambient conditions,[1]; listed as II,1.04%
same,Total impurities ambient conditions,[1]; listed as II,1.6%
same,water content ambient conditions,[2]; listed as II,2.93%
same,water content 1 day at 80% rH,[2]; listed as II,10.04%
same,water uptake 1 day at 80% rH,[2]; listed as II,7.11%
same,"Solubility, Concentration",[3],177 mg/mL
"CN(C)c1cc(NC(=O)CNC(C)(C)C)c(O)c2c1C[C@H]1C[C@H]3[C@H](N(C)C)C(O)=C(C(N)=O)C(=O)[C@@]3(O)C(O)=C1C2=O [Form IV, Tigecycline]",4-Epi-Tigecycline 7 days at 80° C.,[1]; listed as IV,0.38
same,Total impurities 7 days at 80° C.,[1]; listed as IV,0.87
same,4-Epi-Tigecycline ambient conditions,[1]; listed as IV,0.23%
same,Total impurities ambient conditions,[1]; listed as IV,0.4%
same,water content ambient conditions,[2]; listed as IV,2.90%
same,water content 1 day at 80% rH,[2]; listed as IV,3.33%
same,water uptake 1 day at 80% rH,[2]; listed as IV,0.43%
same,"Solubility, Concentration",[3],183 mg/mL
"CN(C)c1cc(NC(=O)CNC(C)(C)C)c(O)c2c1C[C@H]1C[C@H]3[C@H](N(C)C)C(O)=C(C(N)=O)C(=O)[C@@]3(O)C(O)=C1C2=O [Form VI, Tigecycline]",Stability in words (total impurities and 4-Epi-Tigecycline content),[1]; listed as VI,adequate stability data
same,4-Epi-Tigecycline 7 days at 80° C.,[1]; listed as VI,0.38
same,Total impurities 7 days at 80° C.,[1]; listed as VI,0.91
same,4-Epi-Tigecycline ambient conditions,[1]; listed as VI,0.17%
same,Total impurities ambient conditions,[1]; listed as VI,0.24%
same,water content ambient conditions,[2]; listed as VI,0.18%
same,water content 1 day at 80% rH,[2]; listed as VI,0.25%
same,Hygroscopicity in words,[2],low hygroscopicity
same,water uptake 1 day at 80% rH,[2]; listed as VI,0.07%
same,"Solubility, Concentration",[3],76 mg/mL
"CN(C)c1cc(NC(=O)CNC(C)(C)C)c(O)c2c1C[C@H]1C[C@H]3[C@H](N(C)C)C(O)=C(C(N)=O)C(=O)[C@@]3(O)C(O)=C1C2=O [Form VIII, Tigecycline]",Stability in words (total impurities and 4-Epi-Tigecycline content),[1]; listed as VIII,adequate stability data
same,Stability in words (total impurities and 4-Epi-Tigecycline content),[1]; listed as form VIII,adequate stability data
same,4-Epi-Tigecycline 7 days at 80° C.,[1]; listed as VIII,0.70
same,Total impurities 7 days at 80° C.,[1]; listed as VIII,2.13
same,4-Epi-Tigecycline ambient conditions,[1]; listed as VIII,0.15%
same,Total impurities ambient conditions,[1]; listed as VIII,0.43%
same,water content ambient conditions,[2]; listed as VIII,0.10%
same,water content 1 day at 80% rH,[2]; listed as VIII,0.21%
same,water uptake 1 day at 80% rH,[2]; listed as VIII,0.11%
same,Hygroscopicity in words,[2]; listed as form VIII,no water uptake at all
same,water uptake 1 day at 80% rH,[2]; listed as form VIII,0.11%
same,"Solubility, Concentration",[3],141 mg/mL
